Results on 26 compounds are retold here after US8501946B2 (Glaxo Group Limited, priority 2009, dated 2013).

The target in experiment [1] is T1, human recombinant P2X7 receptors (Homo sapiens, UniProt Q99572).
T1 construct: expressed in transfected cells
T1 sequence (Q99572 1-595): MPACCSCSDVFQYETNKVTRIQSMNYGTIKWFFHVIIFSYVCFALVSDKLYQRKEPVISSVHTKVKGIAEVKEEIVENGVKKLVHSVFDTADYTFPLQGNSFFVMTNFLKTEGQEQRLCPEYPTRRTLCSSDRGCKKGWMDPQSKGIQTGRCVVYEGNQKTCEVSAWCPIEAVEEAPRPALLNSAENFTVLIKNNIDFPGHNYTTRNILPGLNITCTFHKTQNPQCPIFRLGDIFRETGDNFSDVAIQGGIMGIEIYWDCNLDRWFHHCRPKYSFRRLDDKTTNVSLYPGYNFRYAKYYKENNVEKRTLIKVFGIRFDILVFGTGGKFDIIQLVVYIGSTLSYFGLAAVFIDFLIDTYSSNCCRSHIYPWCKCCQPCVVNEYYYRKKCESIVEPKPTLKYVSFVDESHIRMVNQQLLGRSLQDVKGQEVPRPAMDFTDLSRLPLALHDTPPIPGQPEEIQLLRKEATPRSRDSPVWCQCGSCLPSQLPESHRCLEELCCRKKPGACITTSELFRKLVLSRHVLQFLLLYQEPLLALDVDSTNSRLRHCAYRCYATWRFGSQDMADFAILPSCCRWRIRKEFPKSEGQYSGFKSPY
Description: Ethidium Accumulation Assay 2 (HEK293 cells, ATP-induced ethidium uptake). The format is cell-based. The settings on record: HEK293 cells expressing human P2X7; sometimes mean of more than one measurement; read-out: Assay 2 (antagonist pIC50 for blocking ATP responses) (converted). How it is done:
Eithidium Accumulation Assay 2
Human Embryonic Kidney (HEK) 293 cells, stably expressing human recombinant P2X7 receptors, were grown in poly-D-lysine pretreated 96 well plates for 24 hours at 37° C.
The cells were washed with assay buffer (100 μL), before addition of 25 μL of assay buffer and then 25 ul of assay buffer containing the putative P2X7 receptor antagonist compound. The cells were then incubated at room temperature (19-21° C.) for 30 min before addition of ATP solution (50 μM). […] Antagonist pIC50 values for blocking ATP responses were determined using iterative curve fitting techniques.

Experiment [2] has as its target T1, human recombinant P2X7 receptors. In words: Ethidium Accumulation Assay 1 (HEK293 cells, ATP-induced ethidium uptake). The format is cell-based. The settings on record: HEK293 cells expressing human P2X7; 1 mM ATP; sometimes mean of more than one measurement; read-out: Assay 1 (antagonist pIC50 for blocking ATP responses) (converted).

In the case of `Cc1csnc1-c1nnc2n1CCN(C(=O)c1ccc(Cl)c(F)c1Cl)C2` [Example 203, 7-[(2,4-dichloro-3-fluorophenyl)carbonyl]-3-(4-methyl-3-isothiazolyl)-5,6,7,8-tetrahydro[1,2,4]triazolo[4,3-a]pyrazine], the IC50 in experiment [1] is under 100 nM.

For `Cc1c(Cl)cccc1C(=O)N1CCn2c(nnc2-c2ncns2)C1` [Example 195, 7-[(3-Chloro-2-methylphenyl)carbonyl]-3-(1,2,4-thiadiazol-5-yl)-5,6,7,8-tetrahydro[1,2,4]triazolo[4,3-a]pyrazine], the IC50 in experiment [1] was under 10 nM.

In the case of `O=C(c1ccc(Cl)c(F)c1Cl)N1CCn2c(nnc2-c2cnsn2)C1` [Example 190, 7-[(2,4-Dichloro-3-fluorophenyl)carbonyl]-3-(1,2,5-thiadiazol-3-yl)-5,6,7,8-tetrahydro[1,2,4]triazolo[4,3-a]pyrazine], the IC50 in experiment [1] was under 10 nM.

For the compound `O=C(c1ccc(F)cc1Br)N1CCn2c(nnc2-c2cnccn2)C1` [Example 147, 7-[(2-bromo-4-fluorophenyl)carbonyl]-3-(2-pyrazinyl)-5,6,7,8-tetrahydro[1,2,4]triazolo[4,3-a]pyrazine], in experiment [1], the IC50 was under 10 nM.

Consider `Cc1c(C(=O)N2CCn3c(nnc3-c3nccs3)C2)ccc(F)c1Cl` [Example 201, 7-[(3-Chloro-4-fluoro-2-methylphenyl)carbonyl]-3-(1,3-thiazol-2-yl)-5,6,7,8-tetrahydro[1,2,4]triazolo[4,3-a]pyrazine], for which, in experiment [1], the IC50 was under 10 nM.

With `Cc1c(C(=O)N2CCn3c(nnc3-c3ncns3)C2)ccc(F)c1Cl` [Example 193, 7-[(3-Chloro-4-fluoro-2-methylphenyl)carbonyl]-3-(1,2,4-thiadiazol-5-yl)-5,6,7,8-tetrahydro[1,2,4]triazolo[4,3-a]pyrazine], the IC50 in experiment [1] was under 10 nM.

For `O=C(c1ccc(Cl)cc1Cl)N1CCn2c(nnc2-c2ncns2)C1` [Example 205, 7-[(2,4-dichlorophenyl)carbonyl]-3-(1,2,4-thiadiazol-5-yl)-5,6,7,8-tetrahydro[1,2,4]triazolo[4,3-a]pyrazine], in experiment [1], the IC50 is under 100 nM.

For `O=C(c1ccc(Cl)c(F)c1Cl)N1CCn2c(nnc2-c2nccs2)C1` [Example 187, 7-[(2,4-Dichloro-3-fluorophenyl)carbonyl]-3-(1,3-thiazol-2-yl)-5,6,7,8-tetrahydro[1,2,4]triazolo[4,3-a]pyrazine], in experiment [1], the IC50 is under 10 nM.

For `Cc1cc(Cl)ccc1C(=O)N1CCn2c(nnc2-c2cnccn2)C1` [Example 145, 7-[(4-chloro-2-methylphenyl)carbonyl]-3-(2-pyrazinyl)-5,6,7,8-tetrahydro[1,2,4]triazolo[4,3-a]pyrazine], in experiment [1], the IC50 is under 100 nM.

For `O=C(c1ccc(F)c(Cl)c1Cl)N1CCn2c(nnc2-c2cnccn2)C1` [Example 113, 7-[(2,3-Dichloro-4-fluorophenyl)carbonyl]-3-(2-pyrazinyl)-5,6,7,8-tetrahydro[1,2,4]triazolo[4,3-a]pyrazine], in experiment [2], the IC50 is under 10 nM.

`Cc1ccc(-c2nnc3n2CCN(C(=O)c2cccc(Cl)c2Cl)C3)nc1` [Example 60, 7-[(2,3-dichlorophenyl)carbonyl]-3-(5-methyl-2-pyridinyl)-5,6,7,8-tetrahydro[1,2,4]triazolo [4,3-a]pyrazine]: in experiment [2], the IC50 was under 100 nM.

For `O=C(c1cccc(Cl)c1Cl)N1CCn2c(nnc2-c2ccccc2)C1` [Example 70, 7-[(2,3-dichlorophenyl)carbonyl]-3-phenyl-5,6,7,8-tetrahydro[1,2,4]triazolo [4,3-a]pyrazine], in experiment [2], the IC50 was under 10 nM.

In the case of `O=C(c1cccc(C(F)(F)F)c1)N1CCn2c(nnc2-c2ccccn2)C1` [Example 86], the IC50 in experiment [2] is under 100 nM.

As to `CN(C)c1nnc2n1CCN(C(=O)c1cccc(C(F)(F)F)c1Cl)C2` [Example 20, 7-{[2-chloro-3-(trifluoromethyl)phenyl]carbonyl}-N,N-dimethyl-5,6,7,8-tetrahydro[1,2,4]triazolo [4,3-a]pyrazine-3-amine], the IC50 in experiment [2] is under 100 nM.

For `O=C(c1ccc(F)cc1Cl)N1CCn2c(nnc2-c2ccccc2)C1` [Example 30, 7-[(2-Chloro-4-fluorophenyl)carbonyl]-3-phenyl-5,6,7,8-tetrahydro[1,2,4]triazolo[4,3-a]pyrazine], in experiment [2], the IC50 is under 100 nM.

Turning to `O=C(c1ccc(F)cc1Cl)N1CCn2c(nnc2-c2cscn2)C1` [Example 90, 7-[(2-chloro-4-fluorophenyl)carbonyl]-3-(1,3-thiazol-4-yl)-5,6,7,8-tetrahydro[1,2,4]triazolo [4,3-a]pyrazine], in experiment [2], the IC50 is under 10 nM.

As for `O=C(c1cccc(Cl)c1Cl)N1CCn2c(nnc2-c2ccc[nH]2)C1` [Example 64, 7-[(2,3-dichlorophenyl)carbonyl]-3-(1H-pyrrol-2-yl)-5,6,7,8-tetrahydro[1,2,4]triazolo [4,3-a]pyrazine], the IC50 in experiment [2] is under 10 nM.

Turning to `O=C(c1ccccc1Cl)N1CCn2c(nnc2-c2ccccn2)C1` [Example 75, 7-[(2-chlorophenyl)carbonyl]-3-(2-pyridinyl)-5,6,7,8-tetrahydro[1,2,4]triazolo [4,3-a]pyrazine], in experiment [2], the IC50 is under 100 nM.

`Cc1ncccc1-c1nnc2n1CCN(C(=O)c1cccc(Cl)c1Cl)C2` [Example 73, 7-[(2,3-dichlorophenyl)carbonyl]-3-(2-methyl-3-pyridinyl)-5,6,7,8-tetrahydro[1,2,4]triazolo [4,3-a]pyrazine]: in experiment [2], the IC50 is under 100 nM.

Take `Cc1ccc(C(=O)N2CCn3c(nnc3-c3cnccn3)C2)c(C)c1` [Example 143, 7-[(2,4-dimethylphenyl)carbonyl]-3-(2-pyrazinyl)-5,6,7,8-tetrahydro[1,2,4]triazolo[4,3-a]pyrazine]: in experiment [2], the IC50 was under 501 nM.

For `COCCc1nnc2n1CCN(C(=O)c1cccc(C(F)(F)F)c1Cl)C2` [Example 137, 7-{[2-chloro-3-(trifluoromethyl)phenyl]carbonyl}-3-[2-(methyloxy)ethyl]-5,6,7,8-tetrahydro[1,2,4]triazolo[4,3-a]pyrazine], the IC50 in experiment [2] is under 100 nM.

Consider `O=C(c1ccc(Cl)cc1Cl)N1CCn2c(Br)nnc2C1` [Example 7, 3-bromo-7-[(2,4-dichlorophenyl)carbonyl]-5,6,7,8-tetrahydro[1,2,4]triazolo [4,3-a]pyrazine], for which the IC50 in experiment [2] was under 501 nM.

Turning to `O=C(c1ccc(Cl)cc1Cl)N1CCn2c(nnc2-c2ccccn2)C1` [Example 76, 7-[(2,4-dichlorophenyl)carbonyl]-3-(2-pyridinyl)-5,6,7,8-tetrahydro[1,2,4]triazolo [4,3-a]pyrazine], the IC50 in experiment [2] is under 10 nM.

For `N#Cc1ccccc1C(=O)N1CCn2c(nnc2-c2ccccn2)C1` [Example 87, 2-{[3-(2-pyridinyl)-5,6-dihydro[1,2,4]triazolo[4,3-a]pyrazin-7(8H)-yl]carbonyl}benzonitrile], in experiment [2], the IC50 was under 100 nM.

For `Cn1nccc1-c1nnc2n1CCN(C(=O)c1cccc(C(F)(F)F)c1Cl)C2` [Example 68, 7-{[2-chloro-3-(trifluoromethyl)phenyl]carbonyl}-3-(1-methyl-1H-pyrazol-5-yl)-5,6,7,8-tetrahydro[1,2,4]triazolo [4,3-a]pyrazine], the IC50 in experiment [2] was under 100 nM.

With `Cn1ccnc1-c1nnc2n1CCN(C(=O)c1ccc(F)cc1Cl)C2` [Example 140, 7-[(2-chloro-4-fluorophenyl)carbonyl]-3-(1-methyl-1H-imidazol-2-yl)-5,6,7,8-tetrahydro[1,2,4]triazolo[4,3-a]pyrazine], the IC50 in experiment [2] is under 501 nM.
